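Results reflect a 48-hour exposure of cells in 96-well plates to compound at five concentrations. GI50 marks 50% less growth.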 Active and inactive are the calls of the source. Cut-off read from the data, not from the text of the source: active = GI50 up to about 1.1 µM and inactive = higher.
How the values were obtained:
Experiment in all cases: NCI anticancer screen, dose series, 48 h
COLO 205 = tested on: COLO 205
OVCAR-5 = tested on: OVCAR-5
HOP-62 = tested on: HOP-62
NCI-H522 = tested on: NCI-H522
Malme-3M = tested on: Malme-3M
SN12C = tested on: SN12C
XF498 = tested on: XF498
TK-10 = tested on: TK-10
HCT-15 = tested on: HCT-15
ACHN = tested on: ACHN
786-0 = tested on: 786-0
UACC-257 = tested on: UACC-257
MOLT-4 = tested on: MOLT-4
SW-620 = tested on: SW-620
KM-20L2 = tested on: KM-20L2
NCI-H226 = tested on: NCI-H226
HCC 2998 = tested on: HCC 2998
SK-MEL-28 = tested on: SK-MEL-28
SNB-78 = tested on: SNB-78
M14 = tested on: M14
DLD-1 = tested on: DLD-1
SK-MEL-5 = tested on: SK-MEL-5
SK-MEL-2 = tested on: SK-MEL-2
UACC-62 = tested on: UACC-62
K562 = tested on: K562
M19-MEL = tested on: M19-MEL
OVCAR-8 = tested on: OVCAR-8
EKVX = tested on: EKVX
HT-29 = tested on: HT-29
OVCAR-3 = tested on: OVCAR-3
RXF 393 = tested on: RXF 393
DMS-114 = tested on: DMS-114
IGROV-1 = tested on: IGROV-1
KM12 = tested on: KM12
SF-268 = tested on: SF-268
NCI-H23 = tested on: NCI-H23
RPMI-8226 = tested on: RPMI-8226
U-251 = tested on: U-251
HOP-92 = tested on: HOP-92
CAKI-1 = tested on: CAKI-1
OVCAR-4 = tested on: OVCAR-4
SK-OV-3 = tested on: SK-OV-3
SNB-19 = tested on: SNB-19
LOX IMVI = tested on: LOX IMVI
A549 = tested on: A549
NCI-H460 = tested on: NCI-H460
CCRF-CEM = tested on: CCRF-CEM
HCT-116 = tested on: HCT-116
SF-295 = tested on: SF-295
SF-539 = tested on: SF-539
UO-31 = tested on: UO-31
A498 = tested on: A498
LXFL 529 = tested on: LXFL 529

In the case of CC1=NN(C(=O)Cc2ccccc2)C(=O)/C1=C\c1ccc([N+](=O)[O-])cc1, the GI50 (COLO 205) is reported as > 100 µM (inactive), the GI50 (OVCAR-5) is reported as > 100 µM (inactive) and the GI50 (HOP-62) is reported as > 100 µM (inactive). For the same molecule, the GI50 (NCI-H522) was > 100 µM (inactive), the GI50 (Malme-3M) was > 100 µM (inactive) and the GI50 (SN12C) was > 100 µM (inactive). For the same molecule, the GI50 (XF498) was > 100 µM (inactive), the GI50 (TK-10) was > 100 µM (inactive) and the GI50 (HCT-15) was over 100 µM. The GI50 (ACHN) was > 100 µM (inactive), the GI50 (786-0) was > 100 µM (inactive) and the GI50 (UACC-257) was > 100 µM (inactive). The GI50 (MOLT-4) was > 100 µM (inactive), the GI50 (SW-620) was > 100 µM (inactive) and the GI50 (KM-20L2) was > 100 µM (inactive). For the same molecule, the GI50 (NCI-H226) was > 100 µM (inactive), the GI50 (HCC 2998) was > 100 µM (inactive) and the GI50 (SK-MEL-28) was > 100 µM (inactive). For the same molecule, the GI50 (SNB-78) was > 100 µM (inactive), the GI50 (M14) was > 100 µM (inactive) and the GI50 (DLD-1) was > 100 µM (inactive). The GI50 (SK-MEL-5) was > 100 µM (inactive), the GI50 (SK-MEL-2) was > 100 µM (inactive) and the GI50 (UACC-62) was > 100 µM (inactive). The GI50 (K562) was > 100 µM (inactive), the GI50 (M19-MEL) was > 100 µM (inactive) and the GI50 (OVCAR-8) was > 100 µM (inactive). The GI50 (EKVX) was > 100 µM (inactive), the GI50 (HT-29) was > 100 µM (inactive) and the GI50 (OVCAR-3) was > 100 µM (inactive). For the same molecule, the GI50 (RXF 393) was > 100 µM (inactive), the GI50 (DMS-114) was > 100 µM (inactive) and the GI50 (IGROV-1) was > 100 µM (inactive). For the same molecule, the GI50 (KM12) was > 100 µM (inactive), the GI50 (SF-268) was > 100 µM (inactive) and the GI50 (NCI-H23) was > 100 µM (inactive). The GI50 (RPMI-8226) was > 100 µM (inactive), the GI50 (U-251) was > 100 µM (inactive) and the GI50 (HOP-92) was 1.15 µM (inactive). For the same molecule, the GI50 (CAKI-1) was > 100 µM (inactive), the GI50 (OVCAR-4) was > 100 µM (inactive) and the GI50 (SK-OV-3) was > 100 µM (inactive). The GI50 (SNB-19) was > 100 µM (inactive), the GI50 (LOX IMVI) was > 100 µM (inactive) and the GI50 (A549) was > 100 µM (inactive). The GI50 (NCI-H460) was > 100 µM (inactive), the GI50 (CCRF-CEM) was > 100 µM (inactive) and the GI50 (HCT-116) was > 100 µM (inactive). The GI50 (SF-295) was > 100 µM (inactive), the GI50 (SF-539) was > 100 µM (inactive) and the GI50 (UO-31) was > 100 µM (inactive). For the same molecule, the GI50 (A498) was > 100 µM (inactive) and the GI50 (LXFL 529) was > 100 µM (inactive).
